The source of these data is US9546151B2, “VMAT inhibitory compounds” (Oregon Health & Science University, priority 2014, dated 2017).

Data set [1] concerns the target T1, VMAT2 (Homo sapiens, UniProt Q05940). Conditions: background statements; cited from earlier work.
The target in data set [2] is T1, VMAT2. As to conditions: high concentrations; cited from earlier work.
The conditions of data set [3]: base; cited from earlier work.
For the next data set, the target named is T2, human 5HT2C receptor (Homo sapiens, UniProt P28335).
T2 construct: expressed in transfected cells; host or cells: HEK cells
T2 sequence (P28335 33-458): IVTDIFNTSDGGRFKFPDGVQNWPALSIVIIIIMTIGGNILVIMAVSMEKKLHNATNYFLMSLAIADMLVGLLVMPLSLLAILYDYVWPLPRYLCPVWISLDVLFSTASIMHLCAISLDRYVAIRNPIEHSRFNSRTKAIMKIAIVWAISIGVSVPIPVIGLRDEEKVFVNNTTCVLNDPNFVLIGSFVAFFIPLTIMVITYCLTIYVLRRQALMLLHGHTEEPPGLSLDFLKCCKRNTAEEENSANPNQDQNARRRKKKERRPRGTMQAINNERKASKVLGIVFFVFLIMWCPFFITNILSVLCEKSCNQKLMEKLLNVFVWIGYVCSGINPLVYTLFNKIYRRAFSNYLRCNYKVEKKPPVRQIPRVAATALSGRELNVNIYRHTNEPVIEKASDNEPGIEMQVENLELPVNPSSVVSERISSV
The data set can be described thus: h5HT2C receptors: [125I]DOI binding. Conditions: read-out: Kd for [^125I] DOI at 5HT2C receptors; used in Cheng-Prusoff equation. The protocol:
The method was adapted from AR Knight et al, Naunyn-Schmeideberg's Arch Pharmacol 370, 114-123 (2004).
Method: Human embryonic kidney cells expressing the human 5HT2A receptor (HEK-h5HT2A) or human 5HT2C receptor (HEK-h5HT2C) were used. The cells were grown until confluent on 15 cm plates. Media was removed, cells were washed with phosphate-buffered saline (PBS), scraped into 2 ml PBS and frozen at −20° C. until needed. Cell suspension was thawed, 10 ml assay buffer (50 mM Tris, pH 7.4 at 37° C., with 0.1% ascorbic acid and 5 mM CaCl2) was added per plate of cells, and polytronned at setting 6 for 5 sec. The homogenate was centrifuged at 15,500 rpm for 20 min. To minimize the residual 5HT concentration, the pellet was resuspended in buffer, polytronned, and centrifuged as above. The final pellet was resuspended in 2 ml buffer/plate of cells.
The binding assay included 50 μl drug, 5HT or buffer, 50 μl cell homogenate, 50 μl [^125I]DOI (˜0.1 nM) and buffer in a final volume of 250 μl. Specific binding was defined as the difference between total binding and binding in the presence of 10 μM 5HT. The reaction was incubated for 1 hour at 37° C., and terminated by filtration through Wallac A filtermats presoaked in 0.05% polyethylenimine using a Tomtec 96-well harvester. Radioactivity remaining on filters was counted in a Wallac betaplate reader. IC50 values were calculated using GraphPad Prism. […]

For data set [4], the target named is T1, VMAT2. Conditions: transfected cells; Miller et al 2004; cited from earlier work.
Another data set has as its target DAT (Homo sapiens, UniProt Q01959). As to conditions: transfected cells; Miller et al 2004; cited from earlier work.
The conditions of data set [5]: rats, lever press; Harrod et al 2001; cited from earlier work.

T1 sequence (Q05940 whole entry, species assumed): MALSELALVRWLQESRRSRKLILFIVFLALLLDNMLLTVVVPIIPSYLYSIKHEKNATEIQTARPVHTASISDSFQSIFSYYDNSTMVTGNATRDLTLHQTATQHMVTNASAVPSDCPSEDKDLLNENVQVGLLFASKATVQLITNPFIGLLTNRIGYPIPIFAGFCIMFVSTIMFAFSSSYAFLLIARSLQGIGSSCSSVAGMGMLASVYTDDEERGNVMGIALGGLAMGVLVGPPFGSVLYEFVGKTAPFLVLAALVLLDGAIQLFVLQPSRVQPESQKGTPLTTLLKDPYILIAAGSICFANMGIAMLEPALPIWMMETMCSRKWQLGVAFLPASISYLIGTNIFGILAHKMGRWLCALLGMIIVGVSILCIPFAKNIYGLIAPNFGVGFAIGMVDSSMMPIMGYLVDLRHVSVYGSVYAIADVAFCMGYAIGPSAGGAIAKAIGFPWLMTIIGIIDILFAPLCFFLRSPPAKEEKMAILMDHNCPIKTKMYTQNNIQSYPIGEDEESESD
DAT, sequence (Q01959 whole entry, species assumed): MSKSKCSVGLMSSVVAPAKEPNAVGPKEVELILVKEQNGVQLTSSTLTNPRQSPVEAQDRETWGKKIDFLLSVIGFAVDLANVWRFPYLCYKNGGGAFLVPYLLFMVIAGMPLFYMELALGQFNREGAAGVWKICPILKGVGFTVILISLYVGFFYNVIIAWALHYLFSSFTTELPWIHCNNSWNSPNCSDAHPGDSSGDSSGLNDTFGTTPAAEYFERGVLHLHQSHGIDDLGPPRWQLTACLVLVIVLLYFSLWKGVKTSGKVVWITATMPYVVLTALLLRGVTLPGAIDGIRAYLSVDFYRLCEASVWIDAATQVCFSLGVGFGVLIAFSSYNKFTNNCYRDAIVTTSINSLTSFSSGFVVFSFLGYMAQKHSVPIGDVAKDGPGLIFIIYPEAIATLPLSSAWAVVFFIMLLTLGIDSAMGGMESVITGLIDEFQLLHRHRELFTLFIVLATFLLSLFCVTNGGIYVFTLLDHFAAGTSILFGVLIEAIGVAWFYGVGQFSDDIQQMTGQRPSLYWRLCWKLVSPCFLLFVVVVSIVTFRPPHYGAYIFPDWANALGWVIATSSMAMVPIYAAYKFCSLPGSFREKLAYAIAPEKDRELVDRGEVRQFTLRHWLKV

Turning to `O=C(c1ccc(F)cc1)C1CCN(CCn2c(=O)[nH]c3ccccc3c2=O)CC1` [Ketanserin], on VMAT2 [1], the “affinity for VMAT2 (in words)” value is “high affinity”.
What is called pKa is the negative logarithm of the acid dissociation constant. For the compound `CN[C@@H](C)Cc1ccccc1` [MA, Methamphetamine], at VMAT2 [2], the “concentration for inhibition of [^3H]DTBZ binding” value is reported as 1.2 mM. Besides, the pKa in data set [3] was 9.8.
Usually Kd stands for a measure of binding affinity in units of concentration. Regarding `COc1cc(CC(C)N)c(OC)cc1I` (stereo not shown) [[^125I] DOI], the Kd on human 5HT2C receptor turned out to be 4.18 nM.
Consider `CN1[C@@H](CC(=O)c2ccccc2)CCC[C@H]1C[C@H](O)c1ccccc1` [lobeline, 2-((2R,6S)-6-((S)-2-Hydroxy-2-phenylethyl)-1-methylpiperidin-2-yl)-1-phenylethanone], for which the “affinity at VMAT2” value at VMAT2 [4] was 4.3 µM. For the same compound, at DAT, the “affinity at the DAT” value was 5.4 µM. Further, the “responding for intravenous MA or sucrose after pretreatment” value in data set [5] is recorded as “decreased responding to both acutely”.
